From paper PMC4583543, “Development and Validation of a Novel Leishmania donovani Screening Cascade for High-Throughput Screening Using a Novel Axenic Assay with High Predictivity of Leishmanicidal Intracellular Activity” (PLoS Neglected Tropical Diseases, 2015)
Where two headings read alike, the source gives them in different places.

Assays:
[1] = system: HepG2 cells; experiment: HepG2 assay (mammalian counterscreen, resazurin); format: cell-based, human; details: reference compound panel, mean (standard deviation), 72 h; for EC50: Homo sapiens, HepG2, read-out: HepG2 (potency, pEC50) (converted)
Procedure: Compounds were dispensed into 384-well assay plates by acoustic dispensing (LabCyte ECHO). […] Potencies are reported as pEC50 (-LOG(EC50[M])). All data was processed using IDBS ActivityBase. […] For compounds with low activity and poor definition of the curve top, B was fixed to 100. For the determination of the reference compound panel potency, all experiments were carried out with a minimum of three independent repeats. The assay conditions are described previously.

[2] = system: THP-1 cells; experiment: THP-1 host cell toxicity in the intramacrophage assay; format: cell-based, human; details: for EC50: Homo sapiens, THP-1
Procedure: (§1) Compounds were dispensed into 384-well assay plates by acoustic dispensing (LabCyte ECHO). […] Potencies are reported as pEC50 (-LOG(EC50[M])).
(§2) All data was processed using IDBS ActivityBase. […] Potency plates were normalised to DMSO control (0% effect) and 2μM amphotericin B control (100% effect). […] For compounds with low activity and poor definition of the curve top, B was fixed to 100. For the determination of the reference compound panel potency, all experiments were carried out with a minimum of three independent repeats.
(§3) The assay conditions are described previously. Briefly PMA differentiated THP-1 cells were infected overnight with eGFP expressing LdBOB amastigote-like cells at a multiplicity of infection of 5. Next, any remaining free amastigote-like cells are removed and compounds are added. The microscopy-based read-out is done after a four day compound incubation.

[3] = system: LdBOB axenic amastigote-like cells; experiment: Novel (cidal) axenic amastigote assay, BacTiter-Glo read-out; format: cell-based, Leishmania donovani; details: for EC50: Leishmania donovani
Text: Leishmania donovani BOB cells (LdBOB) used in this study are a cloned line from strain MHOM/SD/62/1S-CL2 [13]. Cultures were maintained as described previously. Compounds were dispensed into 384-well assay plates by acoustic dispensing (LabCyte ECHO). […] Potencies are reported as pEC50 (-LOG(EC50[M])). All data was processed using IDBS ActivityBase. […] For compounds with low activity and poor definition of the curve top, B was fixed to 100. For the determination of the reference compound panel potency, all experiments were carried out with a minimum of three independent repeats. Test compounds were pre-dispensed into white 384 well plates (Corning). For library screens one compound per well was tested at the indicated final concentration. […] DMSO, zero percent effect control: cells at starting concentration. The zero percent effect control wells are left empty during the course of the assay. […] The assay volume is 25 μl / well. […] Plates were then sealed with clear film and relative luminescence was detected using a plate reader (Victor 3) from Perkin Elmer or PHERAstar FS from BMG LABTECH, with 0.5 s detection time per well).

[4] = system: eGFP expressing LdBOB amastigote-like cells in PMA differentiated THP-1 cells; experiment: Intramacrophage (intracellular, INMAC) assay; format: cell-based, Leishmania donovani; details: for EC50: Leishmania donovani
Procedure: as §1, §2, §3

[5] = reference compound panel, mean (standard deviation), host cell toxicity, read-out: THP-1 (potency, pEC50) (converted)
[6] = read-out: Novel (axenic assay potency, pEC50) (converted)
[7] = THP-1, 96 h, reference compound panel, mean (standard deviation), minimum three independent repeats, four day incubation, read-out: Intramacrophage (potency, pEC50) (converted)
[8] = THP-1, DOS library compounds, dose response, read-out: INMAC (intracellular) pEC50 (converted)
[9] = DOS library compounds, dose response, read-out: THP1 pEC50 (converted)
[10] = DOS library compounds, ten-point dose response, read-out: cAX pEC50 (converted)

| Compound | EC50 [1] [µM] | EC50 [2, 5] [µM] | EC50 [3, 6] [µM] | EC50 [4, 7] [µM] | EC50 [4, 8] [µM] | EC50 [2, 9] [µM] | EC50 [3, 10] [µM] | further results |
| --- | --- | --- | --- | --- | --- | --- | --- | --- |
| N=C(N)c1ccc(/N=N/Nc2ccc(C(=N)N)cc2)cc1 [Diminazene] | > 50.1 | > 34.7 | 11.7 | > 34.7 | – | – | – | – |
| Cn1c([N+](=O)[O-])cnc1COc1ccc(S(C)(=O)=O)cc1 [Fexinidazole sulfone] | > 50.1 | > 34.7 | 7.76 | 32.4 | – | – | – | – |
| CCCNC(=O)N1[C@H](C#N)[C@@H](c2ccc(-c3cccc(OC)c3)cc2)[C@@H]1CO [BRD6650 RRS stereoisomer] | – | – | – | – | 15.8 | – | – | – |
| CCCNC(=O)N1[C@H](C#N)[C@H](c2ccc(-c3cccnc3)cc2)[C@@H]1CO [BRD9157] | – | – | – | – | 1.58 | > 50.1 | 12.6 | – |
| CC(C)NC(=O)N1[C@H](C#N)[C@H](c2ccc(-c3ccc(F)cc3)cc2)[C@@H]1CO [BRD3486] | – | – | – | – | 6.31 | 10 | 2 | – |
| CCCNC(=O)N1[C@H](C#N)[C@H](c2ccc(C#Cc3cccc(F)c3)cc2)[C@@H]1CO [BRD0645] | – | – | – | – | 3.98 | > 50.1 | 0.794 | – |
| C[C@@H]1[C@H](O)[C@@H](C)/C=C/C=C/CC/C=C/C=C/C=C/C=C/C(O[C@H]2O[C@H](C)[C@@H](O)[C@H](N)[C@@H]2O)CC2O[C@](O)(CC(O)C(O)CCC(O)CC(O)CC(O)CC(=O)O[C@H]1C)CC(O)C2C(=O)O (stereo partly drawn) [Nystatin] | – | – | – | – | – | – | – | HepG2 (potency, pEC50) [1]: < 4.3; THP-1 (potency, pEC50) ([2]; reference compound panel, mean (standard deviation), host cell toxicity): < 4.46; Novel (axenic assay potency, pEC50) ([3]; reference compound panel, mean (standard deviation), minimum three independent repeats, top concentration 50 μM, pEC50 = -LOG(EC50[M])): 5.19 (0.21); Intramacrophage (potency, pEC50) ([4]; reference compound panel, mean (standard deviation), minimum three independent repeats, four day incubation): 4.68 (0.5) |
| CC(=O)O[C@@]12CO[C@@H]1C[C@H](O)[C@@]1(C)C(=O)[C@H](O)C3=C(C)[C@@H](OC(=O)[C@H](O)[C@@H](NC(=O)OC(C)(C)C)c4ccccc4)C[C@@](O)([C@@H](OC(=O)c4ccccc4)[C@H]21)C3(C)C [Docetaxel] | – | > 34.7 | 8.91 | 14.5 | – | – | – | – |
| O=c1cc(-c2ccc(O)c(O)c2)oc2cc(O)cc(O)c12 [Luteolin] | 24.5 | 14.5 | 46.8 | 28.2 | – | – | – | – |
| CC(C)Cn1cnc2c(N)nc3ccccc3c21 [Imiquimod] | > 50.1 | > 34.7 | > 50.1 | – | – | – | – | EC50 ([4]; THP-1, 96 h, read-out: Intramacrophage (potency, pEC50) (converted)): > 34.7 µM |
| CC(C)(C)NC(=O)[C@@H]1CN(Cc2cccnc2)CCN1C[C@@H](O)C[C@@H](Cc1ccccc1)C(=O)N[C@H]1c2ccccc2C[C@H]1O [Indinavir] | > 50.1 | > 34.7 | > 50.1 | > 34.7 | – | – | – | – |
| CCCNC(=O)N1[C@H](C#N)[C@H](c2ccc(C#Cc3ccc(F)cc3)cc2)[C@@H]1CO [BRD1184] | – | – | – | – | 2 | 15.8 | 0.631 | – |
| N=C(N)c1ccc(OCCCCCOc2ccc(C(=N)N)cc2)cc1 [Pentamidine] | 2.82 | > 34.7 | 8.71 | 15.5 | – | – | – | – |
| NCCCC(O)(P(=O)(O)O)P(=O)(O)O [Alendronic acid] | > 50.1 | > 34.7 | > 50.1 | > 34.7 | – | – | – | – |
| CCCNC(=O)N1[C@H](C#N)[C@H](c2ccccc2-c2ccc(OC)cc2)[C@@H]1CO [BRD2647] | – | – | – | – | 6.31 | > 50.1 | 1.58 | – |
| CCCNC(=O)N1[C@H](C#N)[C@H](c2ccc(-c3cccc(OC)c3)cc2)[C@@H]1CO [BRD6650] | – | – | – | – | 2 | > 50.1 | 0.501 | – |
| CCCNC(=O)N1[C@@H](C#N)[C@@H](c2ccc(-c3cccc(OC)c3)cc2)[C@@H]1CO [BRD6650 RRR stereoisomer] | – | – | – | – | 50.1 | – | – | – |
| CCN(CC)Cc1cc(Nc2ccnc3cc(Cl)ccc23)ccc1O [Amodiaquine] | 25.7 | 29.5 | > 50.1 | 4.07 | – | – | – | activity in words (intracellular versus novel axenic) ([4]; reference compound panel): only active in the intracellular assay |
